# PubChem BioAssay (NCI)
#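 Each compound was tested at five concentrations against cells in 96-well plates for 48 hours. Here, GI50 denotes the concentration required for 50% inhibition of growth. TGI is the concentration that stops growth completely.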
# What was measured:
# Test in all cases: growth of human tumour cells (NCI), 48 h
# NCI-H23 lung = system: NCI-H23 lung
# SNB-75 CNS = system: SNB-75 CNS
# UACC-62 melanoma = system: UACC-62 melanoma
# 786-0 renal = system: 786-0 renal
# A498 renal = system: A498 renal
# BT-549 breast = system: BT-549 breast
# DU-145 prostate = system: DU-145 prostate
# MDA-MB-231 breast = system: MDA-MB-231 breast
# MDA-N = system: MDA-N
# PC-3 prostate = system: PC-3 prostate
# T-47D breast = system: T-47D breast
SMILES,TGI (NCI-H23 lung),TGI (SNB-75 CNS),TGI (UACC-62 melanoma),TGI (786-0 renal),TGI (A498 renal),TGI (BT-549 breast),TGI (DU-145 prostate),TGI (MDA-MB-231 breast),TGI (MDA-N),TGI (PC-3 prostate),TGI (T-47D breast),GI50 (A498 renal),GI50 (DU-145 prostate),GI50 (MDA-MB-231 breast),GI50 (SNB-75 CNS),GI50 (BT-549 breast),GI50 (NCI-H23 lung),GI50 (UACC-62 melanoma),GI50 (PC-3 prostate)
c1ccc(-n2cnnc2-c2nsc3ccccc23)cc1,> 100 µM,> 100 µM,> 100 µM,–,–,–,–,–,–,–,–,–,–,–,–,–,–,–,–
C=C1C(=O)OC2/C=C(\C)C(=O)CC3OC(C)(C)OC3(C)CC(OC(=O)/C(C)=C/C)C12 (stereo not drawn),57.8 µM,> 72.9 µM,27.8 µM,> 47.9 µM,54.4 µM,26.8 µM,45.1 µM,58 µM,> 80.5 µM,59 µM,> 64.6 µM,–,–,–,–,–,–,–,–
CCN(CC)C(=S)SC(=S)N(CC)CC,> 80.6 µM,99.2 µM,> 93.1 µM,56.3 µM,> 100 µM,77.4 µM,> 100 µM,> 92.1 µM,> 100 µM,> 100 µM,> 100 µM,–,–,–,–,–,–,–,–
Cc1ccc(P(c2ccc(C)cc2)c2ccc(C)cc2)cc1,> 100 µM,49.5 µM,52.3 µM,–,79.3 µM,> 100 µM,40.1 µM,67.6 µM,55.8 µM,> 100 µM,> 100 µM,–,–,–,–,–,–,–,–
COc1cc(C(C)(C)C)cc(OC)c1C(O)(c1c(OC)cc(C(C)(C)C)cc1OC)c1c(OC)cc(C(C)(C)C)cc1OC,–,–,–,–,2.53 µM,–,–,–,–,–,–,0.477 µM,–,–,–,–,–,–,–
Nc1nc(N)c2ncn(-c3ccc(Cl)c(Cl)c3)c2n1,40.4 µM,–,43 µM,27.5 µM,32.4 µM,72.6 µM,> 100 µM,77.7 µM,> 100 µM,82.1 µM,> 100 µM,–,–,–,–,–,–,–,–
C=C(CN(C)C)C(=O)c1ccc(C)cc1C,27.3 µM,34.9 µM,31.5 µM,12.5 µM,33.7 µM,12.7 µM,33.5 µM,52.1 µM,14.3 µM,31.1 µM,18.6 µM,–,–,–,–,–,–,–,–
Nc1ccc(OCC(O)N2C(=O)c3ccccc3C2=O)cc1 (stereo not drawn),–,–,> 100 µM,–,–,–,> 100 µM,> 100 µM,> 100 µM,> 100 µM,> 100 µM,–,–,–,–,–,–,–,–
CCN=C=NCCCN(C)C,> 100 µM,> 100 µM,> 100 µM,> 100 µM,> 100 µM,> 100 µM,> 100 µM,> 100 µM,> 100 µM,> 100 µM,–,–,–,–,–,–,–,–,–
CN1CCC(C(=O)NNc2ccccc2)CC1,> 100 µM,> 100 µM,> 33.7 µM,> 100 µM,> 100 µM,–,–,–,–,–,–,–,–,–,–,–,–,–,–
N=C(N)c1ccc(-c2ccc(-c3cncc4ccccc34)s2)cc1F,–,3.14 µM,–,–,2.5 µM,–,3.45 µM,3.12 µM,–,–,–,1.06 µM,1.86 µM,1.4 µM,1.73 µM,–,–,–,–
COc1ccc2[nH]c3c([N+](=O)[O-])ccc(Cl)c3c(=O)c2c1,> 52.8 µM,–,34.5 µM,33.7 µM,> 100 µM,32.1 µM,> 100 µM,32.8 µM,> 55.6 µM,52.1 µM,> 84.7 µM,–,–,–,–,–,–,–,–
C=C(C)C(=O)OC1C(C(C)CCCO)=C(CO)CC2OC(=O)C(=C)C21 (stereo not drawn),43 µM,40.5 µM,31.9 µM,25.9 µM,36.5 µM,34.7 µM,27.8 µM,36 µM,37.7 µM,76.6 µM,45.5 µM,–,–,–,–,–,–,–,–
OC(Cc1ccccc1)(Cc1ccccc1)c1ccccc1,38.4 µM,–,31.3 µM,29.6 µM,34.1 µM,36.3 µM,32.3 µM,33.8 µM,29.2 µM,34.4 µM,> 100 µM,–,–,–,–,–,–,–,–
C=C1CC23CCC4C(C)(C(=O)O)CCCC4(C)C2CCC1C3 (stereo not drawn),> 100 µM,> 100 µM,> 100 µM,> 100 µM,> 100 µM,> 100 µM,> 100 µM,> 100 µM,> 100 µM,> 100 µM,> 100 µM,–,–,–,–,–,–,–,–
COC1/C=C\OC2(C)Oc3c(C)c(O)c4c(O)c(c(/C=N\OCCCc5ccccc5)c(O)c4c3C2=O)NC(=O)/C(C)=C\C=C/C(C)C(O)C(C)C(O)C(C)C(OC(C)=O)C1C (stereo not drawn),10 µM,8.86 µM,10.1 µM,9.81 µM,20.5 µM,–,15.7 µM,7.97 µM,13 µM,11.2 µM,15.6 µM,–,–,–,–,–,–,–,–
CC(C)(C)C1(c2ccc(C3(c4ccccc4)Oc4ccccc4S3)[nH]2)Oc2ccccc2S1 (stereo not drawn),> 100 µM,–,> 100 µM,–,–,–,–,–,–,–,–,–,–,–,–,–,–,–,–
O=[N+]([O-])c1ccc(/C=N\Nc2ccc([N+](=O)[O-])cn2)cc1,> 100 µM,> 100 µM,> 100 µM,> 100 µM,–,> 100 µM,> 100 µM,> 100 µM,> 100 µM,> 100 µM,> 100 µM,–,–,–,–,–,–,–,–
C[C@H](C(=O)N[C@@H](Cc1ccc(-c2ccccc2)cc1)C(=O)NC1CC(C)(C)N(C)C(C)(C)C1)c1ccc(-c2ccccc2)c(F)c1,3.08 µM,3.74 µM,3.63 µM,–,–,3.25 µM,3 µM,3.02 µM,–,–,–,–,1.58 µM,1.49 µM,1.35 µM,1.62 µM,1.54 µM,1.92 µM,–
O=S(=O)(O)c1cc(N=Nc2cc(S(=O)(=O)O)c3ccccc3c2O)ccc1/C=C/c1ccc(N=Nc2cc(S(=O)(=O)O)c3ccccc3c2O)cc1S(=O)(=O)O,975 µM,> 736 µM,> 628 µM,> 1000 µM,–,552 µM,712 µM,82.1 µM,359 µM,986 µM,> 1000 µM,–,–,–,–,–,–,–,–
CC(C)=CCc1c(O)ccc2c1OC1c3ccc(O)c(CC=C(C)C)c3OCC21 (stereo not drawn),> 55.1 µM,33.9 µM,18.7 µM,–,25 µM,–,–,–,–,–,–,–,–,–,–,–,–,–,–
C[N+]1(C)CCOC(O)(c2ccccc2)C1 (stereo not drawn),> 100 µM,> 100 µM,> 100 µM,> 100 µM,> 100 µM,> 100 µM,> 100 µM,> 100 µM,> 100 µM,> 100 µM,> 100 µM,–,–,–,–,–,–,–,–
C=C(C)C1CC2=C(O1)C(=O)c1ccccc1C2=O (stereo not drawn),45.1 µM,31.8 µM,30.4 µM,–,–,–,–,–,–,–,–,–,–,–,–,–,–,–,–
C=C(C)[C@@H]1CC[C@]2(C(=O)Nc3ccccn3)CC[C@]3(C)[C@H](CC[C@@H]4[C@@]5(C)CCCNC(C)(C)[C@@H]5CC[C@]43C)[C@@H]12,3.77 µM,5.89 µM,3.12 µM,–,7.96 µM,–,3.42 µM,–,–,6.2 µM,–,2.25 µM,1.81 µM,–,1.72 µM,–,1.85 µM,1.64 µM,1.99 µM
C=C1C(=O)CCC1C(=O)O (stereo not drawn),> 100 µM,> 100 µM,> 100 µM,> 100 µM,> 100 µM,> 100 µM,> 100 µM,> 100 µM,> 100 µM,> 100 µM,> 100 µM,–,–,–,–,–,–,–,–
O=Nc1ccc(O)c2ncccc12,3.04 µM,8.48 µM,2.34 µM,14.7 µM,42.4 µM,23 µM,65.9 µM,57.3 µM,6.01 µM,29.8 µM,33.1 µM,–,–,–,–,–,–,–,–
C/C1=N\NC(=O)c2ccccc2C(=O)N/N=C(\C)c2cccc1n2.O=[N+]([O-])[O-].[Zn+2],> 100 µM,> 100 µM,> 100 µM,> 100 µM,> 100 µM,–,–,–,–,–,–,–,–,–,–,–,–,–,–
Nc1cc(S(=O)(=O)O)cc2cc(S(=O)(=O)O)c(N=Nc3ccc(-c4ccc(N=Nc5c(S(=O)(=O)O)cc6cc(S(=O)(=O)O)cc(N)c6c5O)cc4)cc3)c(O)c12,> 100 µM,> 100 µM,–,–,> 100 µM,–,–,–,–,–,–,–,–,–,–,–,–,–,–
